Source: PMC9459403, “New inhibitors of cathepsin V impair tumor cell proliferation and elastin degradation and increase immune cell cytotoxicity” (Computational and Structural Biotechnology Journal, 2022)

Legend:
Cathepsin V [1] = biological target: T1, Cathepsin V (Homo sapiens, UniProt O60911); experiment: Determination of relative inhibition, substrate Z-Phe-Arg-AMC; assay type: biochemical; conditions: inhibitor 50 μM; substrate 2 μM; mean ± SD (n = 2); read-out: Cathepsin V Ri (%) relative inhibition
T1 construct: made in house; host or cells: Pichia pastoris
Protocol: (§1) Human recombinant cathepsin V was expressed in Pichia Pastoris, and human recombinant cathepsin L was expressed in Escherichia coli, as reported, [51]. To determine the activities of cathepsins V and L, 100 mM acetate buffer (pH 5.5), containing 0.1 % PEG 8000 (Sigma-Aldrich, St. Louis, MO, USA), 5 mM cysteine, and 1.5 mM EDTA was used. Prior to the assay, the enzyme was activated in the assay buffer for 5 min at 37 °C.
(§2) The effect of the inhibitors on cathepsin V and L activity was determined using the substrate Z-Phe-Arg-AMC (Bachem, Bubendorf, Switzerland). The reaction was initiated by adding 90 μL of the activated enzyme (final concentration 2.5 ng/mL and 0.02 nM for cathepsins V and L, respectively) to the wells of a black microtiter plate containing 5 μL of substrate (with a final concentration 2 μM) and 5 μL of inhibitor (with a final concentration of 50 μM). The formation of fluorescent degradation products during the reaction was monitored continuously at 460 nm ± 10 nm with excitation at 380 nm ± 20 nm at 37 °C on a Tecan Infinite M1000 (Mannedorf, Switzerland) spectrofluorometer. All assay mixtures contained 5 % (v/v) DMSO. To prevent false-positive inhibition due to the formation of compound aggregates, 0.01 % Triton X-100 was used. All measurements were performed in triplicate and repeated at least twice. Relative inhibition was calculated using the following equation: relative inhibition (%) = 100(1- vi/vo), where vi and vo denote the reaction velocities in the presence and absence of the inhibitor, respectively.

[2] = biological target: T2, human recombinant cathepsin L (Homo sapiens, UniProt P07711); experiment: as above; assay type: biochemical; conditions: inhibitor 50 μM; substrate 2 μM; mean ± SD (n = 2); read-out: Cathepsin L Ri (%) relative inhibition
T2 construct: made in house; host or cells: Escherichia coli
Protocol: as §1, §2

Cathepsin V [3] = biological target: T1, Cathepsin V; experiment: Determination of Ki values and mode of inhibition; assay type: biochemical
Protocol: as §1
(§3) Inhibition constants were calculated from reaction velocities measured at three substrate concentrations (0.5, 1, and 4 μM) in the presence of inhibitors at seven concentrations (0, 20, 40, 60, 80, 100, and 200 µM). The reaction was initiated by adding 90 μL of enzyme at final concentrations of 2.5 ng/mL and 0.02 nM for cathepsins V and L, respectively, to the wells of a black microtiter plate containing 5 μL of substrate and 5 μL of inhibitor. To evaluate cathepsin V and L activity, the substrate Z-Phe-Arg-AMC was used. The formation of the fluorescent degradation products was monitored as described above. All assay mixtures contained 5 % (v/v) DMSO. All measurements were performed in duplicates and repeated at least twice. The SigmaPlot® 12, Enzyme Kinetics Module™ 1.3 was used to calculate Ki values.

[4] = biological target: T2, human recombinant cathepsin L; experiment: Determination of Ki values and mode of inhibition; assay type: biochemical; conditions: mean ± SD (n = 2)
Protocol: as §1, §3

[5] = Aqueous stability (HPLC-based assay); assay type: physicochemical; conditions: 50 μM, 60 h
Protocol: HPLC analyses were performed as described under the Compound characterization section. The method used a Waters Acquity UPLC® HSS C18 SB column (2.1 × 50 mm, 1.8 µm) thermostated at 40 °C, injection volume, 10 µL; flow rate, 0.3 mL/min; detector λ, 280 nm; mobile phase A: 0.1 % TFA (v/v) in water; mobile phase B: MeCN. Method: 0–9 min, 5 % – 95 % B; 9 – 11 min, 95 % B; 11 – 11.5 min, 95 % - 5% B.
Compound 7 stock solution (1 mM) was prepared in DMSO, while internal standard (caffeine, 1 mM) was dissolved in buffer (PBS pH 7.4). The aqueous stability solution was prepared by mixing 1400 µL buffer, 400 µL MeCN, 100 µL internal standard stock solution, and 100 µL compound stock solution in a HPLC vial to give 50 μM compound, 50 μM internal standard, 20 % MeCN, and 5 % DMSO in buffer, which was injected immediately and then at hourly intervals for 60 h while being incubated at 37 °C. The analyte areas under curve (AUCs) were normalized on internal standard AUCs.

[6] = tested on: cystatin F in U-937 cells; experiment: Western blot of cystatin F dimer-to-monomer ratio; assay type: cell-based, human; conditions: U-937 cell lysates, 6 h treatment, 10 and 20 μM, vs control
Protocol: Cells were treated with E-64d or compound 7 (both at 10 µM or 20 µM) for 6 h. After treatment, whole-cell lysates were prepared in RIPA buffer supplemented with cOmplete™ Protease Inhibitor Cocktail (Roche, Basel, Switzerland) and centrifuged at 16 000 × g for 20 min at 4 °C. Total protein concentration was determined using the DC assay (Biorad, Hercules, CA, USA). Proteins were separated by non-reducing SDS-PAGE and transferred to a nitrocellulose membrane using the TransBlot Turbo System (Biorad). After blocking, the membranes were incubated with primary antibodies overnight at 4 °C and with secondary antibodies for 1 h at room temperature. Bands were visualized using Clarity Max Western ECL substrate (Biorad), and protein loading was checked using Stain Free technology (Biorad). Images were acquired using the ChemiDoc ML Imaging System (Biorad), and quantification analysis was performed using Image Lab software (Biorad).
The following primary antibodies were used: rabbit anti-cystatin F (1:375, HPA040442, Sigma), goat anti-cathepsin V (1:200, AF 1080, R&D, USA), and mouse anti-GAPDH (1:3000, 10494-I-AP, Proteintech, USA). […]

T1 sequence (O60911 114-334): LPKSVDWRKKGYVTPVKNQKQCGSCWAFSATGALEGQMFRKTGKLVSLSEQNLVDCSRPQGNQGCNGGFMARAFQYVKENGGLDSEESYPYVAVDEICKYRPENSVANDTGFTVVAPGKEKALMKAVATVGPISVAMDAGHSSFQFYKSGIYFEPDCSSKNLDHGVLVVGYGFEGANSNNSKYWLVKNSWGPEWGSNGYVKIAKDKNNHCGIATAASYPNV
T2 sequence (P07711 114-333): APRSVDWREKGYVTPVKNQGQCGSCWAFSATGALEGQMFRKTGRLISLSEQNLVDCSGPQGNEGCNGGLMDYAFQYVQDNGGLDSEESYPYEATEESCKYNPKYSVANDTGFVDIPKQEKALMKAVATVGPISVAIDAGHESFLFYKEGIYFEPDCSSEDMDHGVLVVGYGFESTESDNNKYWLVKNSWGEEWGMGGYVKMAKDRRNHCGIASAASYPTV

Which results are given for O=C(NCc1cccc2ccccc12)NCC1CCN(C(=O)Oc2ccccc2)CC1 [Compound 7, Phenyl 4-((3-(naphthalen-1-ylmethyl)ureido)methyl)piperidine-1-carboxylate]?
inhibition at 50 µM (Cathepsin V [1]): > 20%; inhibition at 50 µM [2]: 12.1 ± 1.8%; mode of inhibition of cathepsin V (Cathepsin V [3]): competitive; Ki (Cathepsin V [3]; mean ± SD (n = 2)): 88.7 ± 10.2 µM; Cathepsin L Ki (µM) [4]: no inhibition and did not inhibit cathepsin L and n.i^f and n.i; Cathepsin L Ki′ (µM) [4]: n.i^f; aqueous stability ([5]; PBS pH 7.4, 20 % MeCN, 5 % DMSO, 37 °C): stable for days; difference between the last and the first timepoint (normalized AUC) ([5]; PBS pH 7.4, 37 °C, smaller than experimental error): < 2%; cystatin F dimer-to-monomer ratio [6]: even further increased
